Source: ChEMBL document CHEMBL1148828, “Deoxycholic acid-derived tetraoxane antimalarials and antiproliferatives(1)” (J Med Chem, 2007)
Activity calls are given as the source filed them. The calls are words filed in the database; no cut-off is given here.

Assays:
[1] = (§1) Toxicity in Plasmodium berghei KBG 173 infected CD1 mice (Mus musculus); type: organism-based; details: CD1, mouse, in vivo
Mus musculus [2] = organism: Mus musculus; test: as §1; type: organism-based; details: mouse, in vivo
LOX IMVI = test: Antiproliferative activity against human LOX IMVI cells after 48 hrs; type: functional; details: Homo sapiens, LOX IMVI, 48 h
HCT-116 = test: Antiproliferative activity against human HCT116 cells after 48 hrs; type: functional; details: HCT-116, 48 h
Mus musculus [3] = test: Survival of Plasmodium berghei KBG 173 infected CD1 mice (Mus musculus) at 320 mg/kg/day; type: ADME, organism-based; details: in vivo
[4] = Metabolic stability in mouse liver microsomes; type: ADME, Microsome; details: liver microsomes
Mus musculus [5] = test: Survival of Plasmodium berghei KBG 173 infected CD1 mice (Mus musculus) at 40 mg/kg/day; type: ADME, organism-based; details: in vivo
Plasmodium falciparum [6] = test: Antimalarial activity against Plasmodium falciparum D6; type: functional, organism-based; details: Plasmodium falciparum, D6
Mus musculus [7] = test: Survival of Plasmodium berghei KBG 173 infected CD1 mice (Mus musculus) at 10 mg/kg/day; type: ADME, organism-based; details: in vivo
Plasmodium falciparum [8] = test: Antimalarial activity against Plasmodium falciparum TM91C235; type: functional, organism-based; details: Plasmodium falciparum, TM91C235
Plasmodium falciparum [9] = test: Antimalarial activity against Plasmodium falciparum W2; type: functional, organism-based; details: Plasmodium falciparum, W2
Mus musculus [10] = test: Survival of Plasmodium berghei KBG 173 infected CD1 mice (Mus musculus) at 80 mg/kg/day; type: ADME, organism-based; details: in vivo
HOP-62 = test: Antiproliferative activity against human HOP62 cells after 48 hrs; type: functional; details: HOP-62, 48 h
Plasmodium berghei [11] = test: Antimalarial activity as survivors after 31 days in Plasmodium berghei KBG173 infected CD1 mice (Mus musculus) at 10 mg/kg/day; type: functional, organism-based; details: KBG 173
SF-268 = test: Antiproliferative activity against human SF268 cells after 48 hrs; type: functional; details: SF-268, 48 h
Plasmodium berghei [12] = test: Antimalarial activity as survivors after 31 days in Plasmodium berghei KBG173 infected CD1 mice (Mus musculus) at 320 mg/kg/day; type: functional, organism-based; details: KBG 173
NCI = test: Growth inhibition of human NCI DTP 60 cells; type: functional; details: Homo sapiens, NCI
[13] = Metabolic stability in human liver microsomes; type: ADME, Microsome; details: liver microsomes
[14] = read-out: LC50 (the source's name)

**Q.** For `CC(=O)O[C@H]1C[C@H]2[C@@H]([C@H](OC(C)=O)C[C@@H]3CC4(CC[C@@]32C)OOC2(CCCCC2)OO4)[C@@H]2CC[C@H]([C@H](C)CCC(=O)NCCN(C)C)[C@@]12C`, which MTD [1] is on record?
**A.** > 960 mg/kg

**Q.** What about the MCD (Mus musculus [2]) of the same compound?
**A.** <= 40 mg/kg/day

**Q.** And the GI50 (LOX IMVI)?
**A.** < 10 nM

**Q.** And the LC50 (concentration killing 50% of cells) (LOX IMVI)?
**A.** 68.8 nM

**Q.** And the TGI (LOX IMVI)?
**A.** 22.4 nM

**Q.** And the GI50 (HCT-116)?
**A.** 83.1 nM

**Q.** And the TGI (HCT-116)?
**A.** 1690 nM

**Q.** And the CC50 (HCT-116; [14])?
**A.** 4.62 µM

**Q.** What about the Survival (Mus musculus [3]) of the same compound?
**A.** 31 days

**Q.** And the half-life [4]?
**A.** 40 min

**Q.** What about the Survival (Mus musculus [5]) of the same compound?
**A.** 21 days

**Q.** And the IC50 (Plasmodium falciparum [6])?
**A.** 28.2 nM

**Q.** And the IC90 (Plasmodium falciparum [6])?
**A.** 45.1 nM

**Q.** What about the Survival (Mus musculus [7]) of the same compound?
**A.** 8 days

**Q.** What about the IC50 (Plasmodium falciparum [8]) of the same compound?
**A.** 19.6 nM

**Q.** What about the IC90 (Plasmodium falciparum [8]) of the same compound?
**A.** 37.9 nM

**Q.** And the IC50 (Plasmodium falciparum [9])?
**A.** 14.5 nM

**Q.** What about the IC90 (Plasmodium falciparum [9]) of the same compound?
**A.** 45.1 nM

**Q.** What about the Survival (Mus musculus [10]) of the same compound?
**A.** 25 days

**Q.** What about the GI50 (HOP-62) of the same compound?
**A.** < 10 nM

**Q.** What about the LC50 (HOP-62) of the same compound?
**A.** 83 nM

**Q.** And the TGI (HOP-62)?
**A.** 16.6 nM

**Q.** And the Activity (Plasmodium berghei [11])?
**A.** inactive

**Q.** What about the GI50 (SF-268) of the same compound?
**A.** 785 nM

**Q.** What about the TGI (SF-268) of the same compound?
**A.** 2250 nM

**Q.** What about the CC50 (SF-268; [14]) of the same compound?
**A.** 5.35 µM

**Q.** What about the Activity (Plasmodium berghei [12]) of the same compound?
**A.** Active

**Q.** What about the GI50 (NCI) of the same compound?
**A.** < 10 nM

**Q.** And the half-life [13]?
**A.** 40 min
